This note sets out measurements from patent US8735414B2 (priority 2009, dated 2014).

For data set [1], the system named is bicistronic HCV replicon (replicon RNA, GenBank Accession No. AJ242654). The experiment in a line: HCV Replicon Assay. Type of data set: cell-based. To be noted: Hepatitis C virus, 72 h, read-out: Replicon IC50.

For `CC(C)Oc1ccc2c(C#N)c(-c3ccc(NS(C)(=O)=O)nn3)n(C3CCC3)c2c1` [compound 275, N-{6-[3-cyano-1-cyclobutyl-6-(propan-2-yloxy)-1H-indol-2-yl]pyridazin-3-yl}methanesulfonamide], the melting point lay within 225 to 227 °C. In addition, the IC50 in data set [1] is 2000 to 5000 nM.

For the compound `CCS(=O)(=O)Nc1ccc(-c2c(C#N)c3ccc(OC(C)C)cc3n2C2CCC2)nn1` [compound 276, N-{6-[3-cyano-1-cyclobutyl-6-(propan-2-yloxy)-1H-indol-2-yl]pyridazin-3-yl}ethanesulfonamide], the melting point is 181 to 183 °C. Besides, the IC50 in data set [1] lay in the range of 2000 to 5000 nM.

On to `CCS(=O)(=O)Nc1ccc(-c2c(C#N)c3ccc(OC)cc3n2C2CCC2)nn1` [compound 277, N-[6-(3-cyano-1-cyclobutyl-6-methoxy-1H-indol-2-yl)pyridazin-3-yl]ethanesulfonamide], for which the melting point lay in the range of 212 to 214 °C. Also, the IC50 in data set [1] is under 500 nM.

The compound `COc1ccc2c(C#N)c(-c3ccc(NS(=O)(=O)C(C)(C)C)nn3)n(C3CCC3)c2c1` [compound 278, N-[6-(3-cyano-1-cyclobutyl-6-methoxy-1H-indol-2-yl)pyridazin-3-yl]-2-methylpropane-2-sulfonamide] returned a melting point of 218 to 220 °C. Further, the IC50 in data set [1] lay within 500 to 2000 nM.

For the compound `CCS(=O)(=O)Nc1ccc(-c2c(C#N)c3ccc(OC(C)C)cc3n2CC2CC2)nc1` [compound 279, N-{6-[3-cyano-1-(cyclopropylmethyl)-6-(propan-2-yloxy)-1H-indol-2-yl]pyridin-3-yl}ethanesulfonamide], the melting point lay in the range of 149 to 154 °C. The IC50 in data set [1] lay within 500 to 2000 nM.

Compound `CC(C)Oc1ccc2c(C#N)c(-c3ccc(NS(=O)(=O)C4CC4)cn3)n(CC3CC3)c2c1` [compound 280, N-{6-[3-cyano-1-(cyclopropylmethyl)-6-(propan-2-yloxy)-1H-indol-2-yl]pyridin-3-yl}cyclopropanesulfonamide] had a melting point of 150 to 155 °C. Moreover, in data set [1], the IC50 was in the range of 500 to 2000 nM.

Compound `CC(C)Oc1ccc2c(C#N)c(-c3ccc(NS(=O)(=O)C(C)C)cn3)n(CC3CC3)c2c1` [compound 281, N-{6-[3-cyano-1-(cyclopropylmethyl)-6-(propan-2-yloxy)-1H-indol-2-yl]pyridin-3-yl}propane-2-sulfonamide] returned a melting point of 168 to 172 °C. Further, in data set [1], the IC50 was 500 to 2000 nM.

In turn, `CCn1c(-c2ccc(N(C(C)C)S(=O)(=O)CC)cn2)c(C#N)c2ccc(OC(C)C)cc21` [compound 282, N-{6-[3-cyano-1-ethyl-6-(propan-2-yloxy)-1H-indol-2-yl]pyridin-3-yl}-N-(propan-2-yl)ethanesulfonamide] showed a melting point of 170 to 175 °C. In data set [1], the IC50 lay in the range of 500 to 2000 nM.

For the compound `CC(C)S(=O)(=O)Nc1ccc(-c2c(C#N)c3ccc(OCC(F)(F)F)cc3n2CC2CC2)nc1` [compound 283, N-{6-[3-cyano-1-(cyclopropylmethyl)-6-(2,2,2-trifluoroethoxy)-1H-indol-2-yl]pyridin-3-yl}propane-2-sulfonamide], the melting point was 188 to 193 °C. Further, the IC50 in data set [1] was 2000 to 5000 nM.

The compound `CCS(=O)(=O)Nc1ccc(-c2c(C#N)c3ccc(OCC(F)(F)F)cc3n2CC2CC2)nc1` [compound 284, N-{6-[3-cyano-1-(cyclopropylmethyl)-6-(2,2,2-trifluoroethoxy)-1H-indol-2-yl]pyridin-3-yl}ethanesulfonamide] yielded a melting point of 190 to 195 °C. Moreover, the IC50 in data set [1] lay in the range of 500 to 2000 nM.

The compound `CCn1c(-c2ccc(NS(=O)(=O)C3CC3)cn2)c(C#N)c2ccc(OC(C)C)cc21` [compound 285, N-{6-[3-cyano-1-ethyl-6-(propan-2-yloxy)-1H-indol-2-yl]pyridin-3-yl}cyclopropanesulfonamide] displayed a melting point of 180 to 185 °C. Besides, the IC50 in data set [1] is 500 to 2000 nM.

In turn, `CCn1c(-c2ccc(NS(=O)(=O)C(C)C)cn2)c(C#N)c2ccc(OC(C)C)cc21` [compound 286, N-{6-[3-cyano-1-ethyl-6-(propan-2-yloxy)-1H-indol-2-yl]pyridin-3-yl}propane-2-sulfonamide] gave a melting point of 180 to 185 °C. Also, the IC50 in data set [1] fell in the range of 500 to 2000 nM.

The compound `CS(=O)(=O)Nc1ccc(-c2c(C#N)c3ccc(C4CC4)cc3n2C2CCC2)cn1` [compound 287, N-[5-(3-cyano-1-cyclobutyl-6-cyclopropyl-1H-indol-2-yl)pyridin-2-yl]methanesulfonamide] displayed a melting point of 239 to 241 °C. Moreover, the IC50 in data set [1] was 500 to 2000 nM.

For `CCS(=O)(=O)Nc1ccc(-c2c(C#N)c3ccc(C4CC4)cc3n2C2CCC2)cn1` [compound 288, N-[5-(3-cyano-1-cyclobutyl-6-cyclopropyl-1H-indol-2-yl)pyridin-2-yl]ethanesulfonamide], the melting point lay in the range of 241 to 243 °C. Further, the IC50 in data set [1] fell in the range of 500 to 2000 nM.

With `CC(C)S(=O)(=O)Nc1ccc(-c2c(C#N)c3ccc(C4CC4)cc3n2C2CCC2)cn1` [compound 289, N-[5-(3-cyano-1-cyclobutyl-6-cyclopropyl-1H-indol-2-yl)pyridin-2-yl]propane-2-sulfonamide], the melting point was 226 to 228 °C. Besides, in data set [1], the IC50 lay within 500 to 2000 nM.

`CCn1c(-c2ccc(N(CC(F)F)S(=O)(=O)C3CC3)nc2)c(C#N)c2ccc(OC(C)C)cc21` [compound 292, N-{5-[3-cyano-1-ethyl-6-(propan-2-yloxy)-1H-indol-2-yl]pyridin-2-yl}-N-(2,2-difluoroethyl)cyclopropanesulfonamide] had a melting point of 232 to 235 °C. In addition, the IC50 in data set [1] fell in the range of 500 to 2000 nM.

With `CCn1c(-c2ccc(N(CCO)S(=O)(=O)C3CC3)nc2)c(C#N)c2ccc(OC(C)C)cc21` [compound 293, N-{5-[3-cyano-1-ethyl-6-(propan-2-yloxy)-1H-indol-2-yl]pyridin-2-yl}-N-(2-hydroxyethyl)cyclopropanesulfonamide], the melting point fell in the range of 212 to 214 °C. Further, in data set [1], the IC50 was 500 to 2000 nM.

`CCn1c(-c2ccc(N(CC#N)S(=O)(=O)C3CC3)nc2)c(C#N)c2ccc(OC(C)C)cc21` [compound 294, N-{5-[3-cyano-1-ethyl-6-(propan-2-yloxy)-1H-indol-2-yl]pyridin-2-yl}-N-(cyanomethyl)cyclopropanesulfonamide] gave a melting point of 236 to 238 °C. In addition, the IC50 in data set [1] fell in the range of 500 to 2000 nM.

As to `CC(C)(C)S(=O)(=O)Nc1ccc(-c2c(C#N)c3ccc(OC(F)F)cc3n2C2CCC2)cn1` [compound 295, N-{5-[3-cyano-1-cyclobutyl-6-(difluoromethoxy)-1H-indol-2-yl]pyridin-2-yl}-2-methylpropane-2-sulfonamide], the melting point was 239 to 240 °C. For the same compound, the half-inhibitory concentration (IC50) in data set [1] lay in the range of 2000 to 5000 nM.

For the compound `Cc1ccc2c(C#N)c(-c3ccc(NS(=O)(=O)C4CC4)cn3)n(C3CCCC3)c2c1` [compound 296, N-[6-(3-cyano-1-cyclopentyl-6-methyl-1H-indol-2-yl)pyridin-3-yl]cyclopropanesulfonamide], the melting point lay in the range of 241 to 245 °C. The IC50 in data set [1] was 2000 to 5000 nM.

Compound `Cc1ccc2c(C#N)c(-c3ccc(NS(=O)(=O)C4CC4)cn3)n(C3CCC3)c2c1` [compound 297, N-[6-(3-cyano-1-cyclobutyl-6-methyl-1H-indol-2-yl)pyridin-3-yl]cyclopropanesulfonamide] registered a melting point of 200 to 205 °C. Moreover, the IC50 in data set [1] was 500 to 2000 nM.
